Measurements published in ChEMBL document CHEMBL2074061, “Inhibition of transport across the hepatocyte canalicular membrane by the antibiotic fusidate” (Biochem Pharmacol, 2002).

Tests used:
[1] = target: T1, ATP-binding cassette sub-family C member 2 (Rattus norvegicus, UniProt Q63120); assay: TP_TRANSPORTER: inhibition of LTC4 uptake in canalicular membrane vesicles of rat liver; format: functional, cell membranes, Canalicular membrane vesicle
[2] = target: T1, ATP-binding cassette sub-family C member 2; assay: TP_TRANSPORTER: inhibition of LTC4 uptake in Mrp2-expressing HEK cells; format: functional, cell-based, HEK293
[3] = target: T1, ATP-binding cassette sub-family C member 2; assay: TP_TRANSPORTER: inhibition of E217betaG uptake in canalicular membrane vesicles of rat liver; format: functional, cell membranes, Canalicular membrane vesicle
Bile salt export pump = target: T2, Bile salt export pump (Rattus norvegicus, UniProt O70127); assay: TP_TRANSPORTER: inhibition of Taurocholate uptake in canalicular membrane vesicles of rat liver; format: functional, cell membranes, Canalicular membrane vesicle
T2 sequence (O70127 whole entry): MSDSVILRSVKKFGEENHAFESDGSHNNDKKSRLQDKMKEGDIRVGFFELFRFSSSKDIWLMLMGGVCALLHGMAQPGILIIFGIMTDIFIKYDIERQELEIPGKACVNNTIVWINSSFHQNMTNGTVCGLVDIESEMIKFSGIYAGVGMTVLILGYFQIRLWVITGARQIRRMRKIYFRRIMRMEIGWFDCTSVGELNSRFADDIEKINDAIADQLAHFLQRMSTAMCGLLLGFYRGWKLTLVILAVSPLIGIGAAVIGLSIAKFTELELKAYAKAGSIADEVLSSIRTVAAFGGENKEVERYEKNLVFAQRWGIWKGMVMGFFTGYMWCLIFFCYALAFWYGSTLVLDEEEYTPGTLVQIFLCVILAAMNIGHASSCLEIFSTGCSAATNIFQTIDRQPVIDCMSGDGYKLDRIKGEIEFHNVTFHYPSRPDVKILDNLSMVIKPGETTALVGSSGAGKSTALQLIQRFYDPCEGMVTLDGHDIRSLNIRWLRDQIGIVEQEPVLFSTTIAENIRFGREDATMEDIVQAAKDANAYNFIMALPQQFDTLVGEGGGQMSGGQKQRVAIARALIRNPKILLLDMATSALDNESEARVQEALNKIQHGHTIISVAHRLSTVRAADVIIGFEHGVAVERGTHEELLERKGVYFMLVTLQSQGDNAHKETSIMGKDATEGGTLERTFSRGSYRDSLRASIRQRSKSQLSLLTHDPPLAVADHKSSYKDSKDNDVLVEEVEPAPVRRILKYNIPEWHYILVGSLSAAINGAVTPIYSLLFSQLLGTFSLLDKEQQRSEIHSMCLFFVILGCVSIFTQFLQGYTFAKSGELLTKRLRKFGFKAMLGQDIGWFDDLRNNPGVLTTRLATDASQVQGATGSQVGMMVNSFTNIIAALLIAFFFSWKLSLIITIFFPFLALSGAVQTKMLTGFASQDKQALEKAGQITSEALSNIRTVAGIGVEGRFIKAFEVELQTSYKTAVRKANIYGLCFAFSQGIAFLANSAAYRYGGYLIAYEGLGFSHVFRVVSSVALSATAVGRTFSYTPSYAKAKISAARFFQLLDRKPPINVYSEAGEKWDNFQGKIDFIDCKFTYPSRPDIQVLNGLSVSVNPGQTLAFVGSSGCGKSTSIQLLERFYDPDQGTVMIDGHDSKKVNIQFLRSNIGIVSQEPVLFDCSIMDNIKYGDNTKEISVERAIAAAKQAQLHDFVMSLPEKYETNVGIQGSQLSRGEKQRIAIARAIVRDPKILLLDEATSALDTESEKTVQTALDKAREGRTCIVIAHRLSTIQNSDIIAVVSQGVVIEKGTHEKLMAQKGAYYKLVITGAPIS

T1 sequence (Q63120 whole entry): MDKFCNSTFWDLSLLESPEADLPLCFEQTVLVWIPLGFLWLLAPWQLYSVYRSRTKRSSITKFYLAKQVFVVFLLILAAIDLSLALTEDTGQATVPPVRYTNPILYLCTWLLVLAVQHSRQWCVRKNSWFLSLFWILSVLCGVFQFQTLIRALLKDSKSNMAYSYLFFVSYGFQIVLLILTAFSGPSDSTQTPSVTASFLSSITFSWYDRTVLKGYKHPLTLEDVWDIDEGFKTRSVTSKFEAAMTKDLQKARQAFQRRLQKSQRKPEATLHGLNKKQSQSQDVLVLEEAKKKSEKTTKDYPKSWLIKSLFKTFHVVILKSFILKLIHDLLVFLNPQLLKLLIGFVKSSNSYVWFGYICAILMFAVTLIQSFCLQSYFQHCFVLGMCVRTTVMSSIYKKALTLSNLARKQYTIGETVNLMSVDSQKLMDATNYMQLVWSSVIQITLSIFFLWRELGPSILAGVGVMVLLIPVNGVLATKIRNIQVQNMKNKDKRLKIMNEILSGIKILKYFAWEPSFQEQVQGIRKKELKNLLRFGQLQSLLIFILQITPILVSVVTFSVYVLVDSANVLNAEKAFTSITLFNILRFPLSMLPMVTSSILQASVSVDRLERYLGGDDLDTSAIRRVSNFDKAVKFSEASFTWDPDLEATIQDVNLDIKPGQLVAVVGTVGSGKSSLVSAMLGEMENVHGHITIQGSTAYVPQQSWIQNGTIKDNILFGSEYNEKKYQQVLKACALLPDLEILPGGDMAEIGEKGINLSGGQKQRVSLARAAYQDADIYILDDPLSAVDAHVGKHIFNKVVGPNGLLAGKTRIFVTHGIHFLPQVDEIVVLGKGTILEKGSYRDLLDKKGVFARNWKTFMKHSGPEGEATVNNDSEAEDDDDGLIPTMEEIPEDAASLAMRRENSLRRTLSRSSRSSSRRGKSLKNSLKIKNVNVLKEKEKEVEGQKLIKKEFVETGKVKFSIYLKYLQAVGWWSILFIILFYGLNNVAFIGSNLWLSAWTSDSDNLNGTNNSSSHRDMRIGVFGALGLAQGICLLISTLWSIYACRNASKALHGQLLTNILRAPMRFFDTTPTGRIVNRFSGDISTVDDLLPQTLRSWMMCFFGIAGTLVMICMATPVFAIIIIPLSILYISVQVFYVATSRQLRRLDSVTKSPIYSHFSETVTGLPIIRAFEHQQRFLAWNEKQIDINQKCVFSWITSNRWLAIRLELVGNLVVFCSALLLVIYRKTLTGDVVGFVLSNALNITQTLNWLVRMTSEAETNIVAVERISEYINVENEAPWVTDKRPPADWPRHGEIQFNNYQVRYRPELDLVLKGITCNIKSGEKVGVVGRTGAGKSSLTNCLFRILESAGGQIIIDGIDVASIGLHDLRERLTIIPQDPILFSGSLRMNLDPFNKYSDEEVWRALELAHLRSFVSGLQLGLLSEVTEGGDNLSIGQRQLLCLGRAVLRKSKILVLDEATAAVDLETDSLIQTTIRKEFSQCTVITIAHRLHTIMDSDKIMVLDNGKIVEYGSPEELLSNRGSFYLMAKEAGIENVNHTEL

Ki [1]: 5.5 µM | Ki [2]: 13 µM | Ki [3]: 7.6 µM | Ki (Bile salt export pump): 2.2 µM
SMILES: CC(=O)O[C@H]1C[C@@]2(C)[C@@H](C[C@@H](O)[C@H]3[C@@]4(C)CC[C@@H](O)[C@@H](C)[C@@H]4CC[C@@]32C)/C1=C(\CCC=C(C)C)C(=O)O [FUSIDIC ACID]
